Source: article PMC10244169, “Psychedelics promote plasticity by directly binding to BDNF receptor TrkB” (Nature Neuroscience, 2023)

Key:
human TrkB = biological target: T1, human TrkB (Homo sapiens, UniProt Q16620); test: ^3H-LSD saturation binding to TrkB immunoprecipitated from HEK293T lysates
T1 construct: GFP; expressed in transfected cells; host or cells: HEK293T
Experimental: (§1) Binding assays were performed as previously described with minor modifications. […] Samples from mouse embryo (E18) brains were also lysed, vortexed, sonicated and centrifuged for binding assays. Plates were then washed with PBS. […] For the competition binding assays with biotinylated R,R-HNK, the amino-biotinylation of R,R-HNK was performed using a commercial kit (Thermo Scientific, EZ-Link NHS-PEG4 Biotinylation Kit, 21455) and the reaction monitored by MS. A mixture of biotinylated R,R-HNK (10 µM) and unlabeled compounds (1 pM to 10 µM) in PBS was added to the 96-well plates containing the immunoprecipitated TrkB and incubated for 1 h at room temperature. […] Luminescence was determined via streptavidin conjugated with horseradish peroxidase (HRP; Thermo Fisher Scientific, 21126; 1:5,000, 1 h at room temperature) in reaction with the Pierce ECL substrate (Thermo Fisher Scientific, 32106). Luminescence from blank wells that contained all reagents but the sample lysates was used to determine nonspecific binding. To obtain the binding curves, results from binding assays were fitted to the equation of specific binding with Hill slope from GraphPad Prism 9.2. To calculate koff values, results were fitted to the equation of dissociation of one phase exponential decay from GraphPad Prism 9.2.

rat TrkB (WT) = biological target: T2, rat TrkB (WT) (Rattus norvegicus, UniProt Q63604); test: as above
T2 construct: expressed in transfected cells; host or cells: HEK293T
T2 sequence (Q63604 32-821): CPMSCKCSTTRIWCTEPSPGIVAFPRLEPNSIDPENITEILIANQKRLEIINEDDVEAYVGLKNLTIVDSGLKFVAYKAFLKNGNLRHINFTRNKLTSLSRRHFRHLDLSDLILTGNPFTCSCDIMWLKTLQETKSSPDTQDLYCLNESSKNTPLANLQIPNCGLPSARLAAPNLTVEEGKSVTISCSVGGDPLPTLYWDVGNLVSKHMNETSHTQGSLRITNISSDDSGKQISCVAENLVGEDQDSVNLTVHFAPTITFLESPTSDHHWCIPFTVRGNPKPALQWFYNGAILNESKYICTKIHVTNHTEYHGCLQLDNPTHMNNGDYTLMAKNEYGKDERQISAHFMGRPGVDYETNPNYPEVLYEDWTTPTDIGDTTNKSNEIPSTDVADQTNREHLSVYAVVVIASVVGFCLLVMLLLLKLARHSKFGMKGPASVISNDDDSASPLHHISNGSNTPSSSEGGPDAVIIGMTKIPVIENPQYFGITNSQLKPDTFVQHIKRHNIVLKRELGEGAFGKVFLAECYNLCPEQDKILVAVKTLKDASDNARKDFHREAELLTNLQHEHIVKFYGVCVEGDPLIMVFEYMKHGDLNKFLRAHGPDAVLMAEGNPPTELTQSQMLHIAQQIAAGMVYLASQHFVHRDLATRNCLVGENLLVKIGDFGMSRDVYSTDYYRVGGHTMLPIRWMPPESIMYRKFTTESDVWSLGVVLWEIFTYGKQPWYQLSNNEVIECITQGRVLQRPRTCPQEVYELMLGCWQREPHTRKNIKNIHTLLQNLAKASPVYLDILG
Experimental: as §1

TrkB Y433F = biological target: T3, TrkB Y433F (Rattus norvegicus, UniProt Q63604, Y433F); test: Radioligand dissociation binding of ^3H-LSD; conditions: ext fig 1c, n=3
T3 construct: expressed in transfected cells; host or cells: HEK293T
T3 sequence (Q63604 32-821 Y433F): as the sequence (Q63604 32-821) above, with Y402F counted along it
Experimental: as §1

TrkB pY816 = test: ELISA of TrkB phosphorylation (pY816) in neuronal cultures; assay type: cell-based, rat; conditions: cortical and hippocampal cultures
Experimental: The phosphorylation of TrkB (pY816) and interaction with PLCγ1 were assessed by enzyme-linked immunosorbent assay (ELISA) as previously described[11],[80],[81] with minor modifications. Briefly, white 96-well plates (PerkinElmer, OptiPlate 96F-HB) were precoated with goat anti-TrkB (R&D systems, AF1494; 1:500, overnight, 4 °C) antibody in carbonate buffer (pH 9.8) and blocked with 3% BSA in PBS with 0.1% Tween-20 (PBS-T) for 2 h at room temperature. […] Samples were incubated overnight at 4 °C, and 24 h later plates were washed with PBS-T and incubated with either rabbit anti-phospho-TrkB(Tyr816) (Cell Signaling Technology, 4168S; 1:2,000), rabbit anti-PLCγ1 (Cell Signaling Technologies, 5690S; 1:2,000) or rabbit anti-Trk (Cell Signaling Technologies, 92991; 1:2,000) antibodies overnight at 4 °C. After washing with PBS-T, plates were incubated with HRP-conjugated goat anti-rabbit (Bio-Rad, 170–5046; 1:5,000, 1 h, room temperature) antibody, followed by more washing with PBS-T. Finally, the chemiluminescent signal was read after brief incubation with Pierce ECL substrate (Thermo Fisher Scientific, 32106). Luminescence from blank wells that contained all reagents but the sample lysates was used to determine background signal.

[1] = system: dentate granule cells (DGCs); test: Long-term survival of newborn dentate granule cells (BrdU); assay type: in vivo, mouse; conditions: for Mean, figure 7b (survival of newborn dentate granule cells): LSD group; for e6h group mean: LSD
Experimental: WT and Y433F^+/− male mice were administered four doses of 5-bromo-2′-deoxyuridine (BrdU, 75 mg kg^−1 per injection, every 2 h) intraperitoneally to tag newborn neurons in the hippocampus and returned to their home cage. […] Four weeks later, animals were intracardially perfused with PBS followed by 4% PFA. Brains were dissected and postfixed with 4% PFA (overnight, 4 °C). Next, brains were transferred to 30% sucrose (0.1% PBS) solution and stored at 4 °C for 48–72 h. Brains were moved into disposable vinyl specimen molds (Sakura, Tissue-Tek Cryomold standard) and covered in Tissue-Tek O.C.T. Compound (Sakura). Trays were placed on dry ice and brains covered once more in TissueTec to ensure full coverage. Once frozen, samples were stored at −80 °C. Brains were sliced coronally at 40 µm thickness, collecting every sixth slice. Slices were stored in cryoprotectant fluid (30% sucrose, 30% ethylene glycol, 1% PVP-40, and 0.05 M PB) in −20 °C until staining. Every third hippocampal slice containing dentate gyrus (DG) was collected for washing with 0.1 M PBS and staining. BrdU immunofluorescence was conducted similarly as previously reported in the literature[28] with modifications. Hippocampal slices were incubated in 2.0 M HCl (30 min, 37 °C) and washed with PBS. Slices were then incubated in 0.1 M borate buffer (pH 8.0) at room temperature for 10 min, followed by further washes in PBS and 1 h incubation in 0.1% PBS blocking buffer (0.5% Triton X-100, 5% normal donkey serum, 5% normal goat serum, 1% BSA and 0.1% gelatin). Sections were incubated with primary antibodies rat anti-BrdU (Abcam, ab6326; 1:200) and mouse anti-NeuN (Millipore, MAB377; 1:1,000) for 48 h at 4 °C with gentle shaking. Slices were then washed with PBS, followed by incubation with secondary antibodies Alexa Fluor 488 donkey anti-rat (Invitrogen, A21208; 1:300) and Alexa Fluor 568 goat-anti-mouse (Invitrogen, A11004; 1:500) for 2 h at room temperature and protected from light. Slices were washed in PBS and PB before mounting with Dako fluorescence mounting medium (Agilent, S302380-2) and slides stored at 4 °C until imaging. A total of eight slices containing both hemispheres and covering the whole DG (every third slice) were imaged with a Zeiss LSM 710 confocal microscope. Fifteen optical sections with a Z-step of 2 µm were acquired per slice with a PlanApochromat 10×/0.45 M27. BrdU^+ and BrdU^+/NeuN^+ cells in the DG were counted manually by experimenters blinded to treatment and genotype using ZEN Blue 3.2. Similarly to Ma et al.[28], we estimated the number of mature neurons (BrdU^+/NeuN^+) in the DG of both hemispheres by multiplying by 6 the total count derived from every third hippocampal slice. The percentage of mature neurons over total BrdU^+ cells in the DG was also calculated.

primary visual cortex = test: Ocular dominance plasticity after monocular deprivation; assay type: in vivo, mouse; conditions: ext fig 7b
Experimental: Female and male mice were 17 weeks old at the time of monocular deprivation, since the physiological critical period in the binocular region of the visual cortex is closed by then[85]. […] Briefly, mice were injected with an anesthetic mixture containing 0.05 mg kg^−1 fentanyl (Hameln), 5 mg kg^−1 midazolam (Hameln) and 0.5 mg kg^−1 medetomidine (Orion Pharma) diluted in saline. Eyes were protected from drying with eye-protective gel (Alcon), and the head was shaved and fixed in a stereotaxic frame with a heating pad maintained at 37 °C. A mixture of lidocaine and adrenaline (Orion Pharma) was applied locally on the head, and the scalp above the visual cortex was cut. The periosteum was removed gently, and the skull was rapidly cleaned from fat with acetone. The surface of the skull was covered with a thin layer of cyanoacrylate glue (Henkel, Loctite 401), followed by two layers of acryl, obtained by mixing colorless acrylic powder (EUBECOS) with liquid methacrylate (Densply). […] The signal was recorded from one eye at a time, with the other eye covered by a patch. […] The OD score as (C − I)/(C + I) was calculated, and the ocular dominance index (ODI) was determined as the mean of the OD score for all responsive pixels, as described by Cang et al.[89].

T1 sequence (Q16620 32-822): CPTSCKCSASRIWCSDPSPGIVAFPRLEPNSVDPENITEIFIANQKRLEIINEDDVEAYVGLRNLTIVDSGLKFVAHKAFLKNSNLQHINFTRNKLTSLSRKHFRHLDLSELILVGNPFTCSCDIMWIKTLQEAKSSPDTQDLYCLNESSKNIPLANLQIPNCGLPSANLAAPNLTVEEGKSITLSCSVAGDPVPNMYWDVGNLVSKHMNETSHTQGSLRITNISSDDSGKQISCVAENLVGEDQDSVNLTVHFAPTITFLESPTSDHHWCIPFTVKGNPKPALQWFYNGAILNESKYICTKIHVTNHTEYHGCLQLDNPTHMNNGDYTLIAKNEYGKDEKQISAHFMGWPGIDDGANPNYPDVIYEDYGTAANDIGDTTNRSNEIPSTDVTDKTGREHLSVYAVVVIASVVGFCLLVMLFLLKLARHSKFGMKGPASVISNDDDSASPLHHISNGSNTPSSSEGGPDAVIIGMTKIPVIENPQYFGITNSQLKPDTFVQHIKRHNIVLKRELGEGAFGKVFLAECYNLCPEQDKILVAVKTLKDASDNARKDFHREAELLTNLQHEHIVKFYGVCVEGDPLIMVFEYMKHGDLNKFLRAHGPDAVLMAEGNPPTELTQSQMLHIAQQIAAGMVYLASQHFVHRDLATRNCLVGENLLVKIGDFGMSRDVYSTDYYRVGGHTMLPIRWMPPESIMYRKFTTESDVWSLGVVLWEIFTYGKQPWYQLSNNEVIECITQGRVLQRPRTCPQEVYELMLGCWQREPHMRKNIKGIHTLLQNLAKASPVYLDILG

CCN(CC)C(=O)C1C=C2c3cccc4[nH]cc(c34)CC2N(C)C1 (centres unmarked) [LSD, lysergic acid diethylamide]
Kd (human TrkB): 0.93 ± 0.414 nM | Bmax (human TrkB; ^3H-LSD saturation, human TrkB): 4.028 ± 0.326 pmol mg^−1 protein | Bmax (specific binding with Hill slope, best-fit) (human TrkB; ext fig 1a, TRKB.wt, n=2): 111.1 | h (Hill slope, best-fit) (human TrkB; ext fig 1a, TRKB.wt, n=2): 0.4722 | Kd (rat TrkB (WT)): 0.656 ± 0.093 nM | h (best-fit, 1a) (rat TrkB (WT); WT, Hill slope): 1.255 | Bmax (best-fit, 1a) (rat TrkB (WT); WT, specific binding with Hill slope): 100.9 | Bmax (rat TrkB (WT); ^3H-LSD saturation, rat TrkB): 3.053 ± 0.099 pmol mg^−1 protein | K (dissociation, one phase exponential decay) (TrkB Y433F): 0.02402 | NS (dissociation, one phase exponential decay) (TrkB Y433F): 6.951 | Y0 (dissociation, one phase exponential decay) (TrkB Y433F): 108.1 | TrkB phosphorylation (pY816) (TrkB pY816): increases phosphorylation of TrkB tyrosine 816 (pY816) | number of surviving DGCs ([1]; WT mice, 4 weeks after single administration (0.1 mg kg^−1 i.p.)): doubles the number of surviving DGCs | Mean, figure 7b (survival of newborn dentate granule cells) ([1]; WT mice): 315.4 | e6h group mean ([1]; WT mice, n=7): 94.67 | Mean Diff., figure 7b, WT:Saline vs. WT:LSD ([1]; WT mice, saline minus LSD, Bonferroni's multiple comparisons test): -197.8 | e6h Mean Diff. (Saline minus LSD) ([1]; WT:Saline vs. WT:LSD, Bonferroni's multiple comparisons test): -4.385 | Mean, figure 7b (survival of newborn dentate granule cells) ([1]; Y433F+/- mice): 150 | e6h group mean ([1]; Y433F+/- mice, n=8): 94.59 | Mean Diff., figure 7b, Y433F+/-:Saline vs. Y433F+/-:LSD ([1]; Y433F+/- mice, saline minus LSD, Bonferroni's multiple comparisons test): 9.6 | e6h Mean Diff. (Saline minus LSD) ([1]; Y433F+/-:Saline vs. Y433F+/-:LSD, Bonferroni's multiple comparisons test): 3.141 | e6h Predicted (LS) mean of LSD ([1]; column mean across WT and Y433F+/- mice): 94.63 | Predicted (LS) mean of LSD, figure 7b ([1]; mean over WT and Y433F+/- mice): 232.7 | Difference between predicted means (Saline - LSD), figure 7b ([1]; means over WT and Y433F+/- mice): -94.11 | Mean ± SEM of column B (IOS II) (primary visual cortex; IOS II (second imaging session), n=10 mice): 0.0300 ± 0.02329, n=10 | Difference between means (IOS II vs. IOS I) (primary visual cortex; column B IOS II vs. column A IOS I, unpaired t test): -0.1640 ± 0.02794
